One experiment has as its system MOLM-13 cells. The experiment is described as follows: Proliferation assay MOLM-13 (Method 3). In kind it is cell-based, human. Conditions: MOLM-13, 72-hour exposure, Cell Titre-Glo, read-out: Inhibition of MOLM-13 cell proliferation IC50. The protocol:
Non-adherent MOLM-13 human acute myeloid leukemia cells (DSMZ ACC 554) were seeded at a density of 5,000 cells/well in a 96-well multititer plate in 100 μL of growth medium supplemented 10% fetal calf serum. After 24 hours, cell viability of one plate (zero-point plate) was determined with the Cell Titre-Glo Luminescent Cell Viability Assay (Promega), while 50 μL of test compound containing medium was added to the wells of the other plates (final concentrations in the range of 0.001-10 μM and DMSO controls; the final concentration of the solvent dimethyl sulfoxide was 0.5%). Cell viability was assessed after 72-hour exposure with the Cell Titre-Glo Luminescent Cell Viability Assay (Promega). IC50 values (inhibitory concentration at 50% of maximal effect) were determined by means of a 4 parameter fit on measurement data which were normalized to vehicle (DMSO) treated cells (=100%) and measurement readings taken immediately before compound exposure (=0%).

The target of the next experiment is T1, CDK2/CycE (Homo sapiens, UniProt P24941).
T1 construct: GST; purchased ProQinase GmbH (Freiburg, Germany); host or cells: insect cells (Sf9)
Description: CDK2/CycE kinase assay (Method 2a, TR-FRET). The experiment is classed as biochemical. Conditions: 10 μM ATP. An excerpt:
2a. CDK2/CycE kinase assay:
CDK2/CycE-Inhibitory Activity of Compounds of the Present Invention was Quantified Employing the CDK2/CycE TR-FRET Assay as Described in the Following Paragraphs:
Recombinant fusion proteins of GST and human CDK2 and of GST and human CycE, expressed in insect cells (Sf9) and purified by Glutathion-Sepharose affinity chromatography, were purchased from ProQinase GmbH (Freiburg, Germany). As substrate for the kinase reaction biotinylated peptide biotin-Ttds-YISPLKSPYKISEG (C-terminus in amid form) was used which can be purchased e.g. form the company JERINI Peptide Technologies (Berlin, Germany).
For the assay 50 nl of a 100 fold concentrated solution of the test compound in DMSO was pipetted into a black low volume 384 well microtiter plate (Greiner Bio-One, Frickenhausen, Germany), 2 yl of a solution of CDK2/CycE in aqueous assay buffer [50 mM Tris/HCl pH 8.0, 10 mM MgCl2, 1.0 mM dithiothreitol, 0.1 mM sodium ortho-vanadate, 0.01% (v/v) Nonidet-P40 (Sigma)] were added and the mixture was incubated for 15 min at 22° C. to allow pre-binding of the test compounds to the enzyme before the start of the kinase reaction. […] The concentration of CDK2/CycE was adjusted depending of the activity of the enzyme lot and was chosen appropriate to have the assay in the linear range, typical concentrations were in the range of 130 ng/mL. The reaction was stopped by the addition of 5 yl of a solution of TR-FRET detection reagents (0.2 μM streptavidine-XL665 [Cisbio Bioassays, Codolet, France] and 1 nM anti-RB(pSer807/pSer811)-antibody from BD Pharmingen [#558389] and 1.2 nM LANCE EU-W1024 labeled anti-mouse IgG antibody [Perkin-Elmer, product no. AD0077]) in an aqueous EDTA-solution (100 mM EDTA, 0.2% (w/v) bovine serum albumin in 100 mM HEPES/NaOH pH 7.0).
The resulting mixture was incubated 1 h at 22° C. to allow the formation of complex between the phosphorylated biotinylated peptide and the detection reagents. Subsequently the amount of phosphorylated substrate was evaluated by measurement of the resonance energy transfer from the Eu-chelate to the streptavidine-XL. Therefore, the fluorescence emissions at 620 nm and 665 nm after excitation at 350 nm was measured in a TR-FRET reader, e.g. a Rubystar (BMG Labtechnologies, Offenburg, Germany) or a Viewlux (Perkin-Elmer). The ratio of the emissions at 665 nm and at […] was taken as the measure for the amount of phosphorylated substrate. The data were normalised (enzyme reaction without inhibitor=0% inhibition, all other assay components but no enzyme=100% inhibition).
For orientation: Time-resolved FRET reads energy transfer from a long-lived donor to a nearby acceptor.

In the next experiment the test system is DU145 cells. The experiment is described as follows: Proliferation assay DU145 (Method 3). The experiment is classed as cell-based, human. Conditions: DU145, 4 days, crystal violet, read-out: Inhibition of DU145 cell proliferation IC50. The protocol: (§1) Cultivated tumour cells (HeLa, human cervical tumour cells, ATCC CCL-2; NCI-H460, human non-small cell lung carcinoma cells, ATCC HTB-177; A2780, human ovarian carcinoma cells, ECACC #93112519; DU 145, hormone-independent human prostate carcinoma cells, ATCC HTB-81; HeLa-MaTu-ADR, multidrug-resistant human cervical carcinoma cells, EPO-GmbH Berlin; Caco-2, human colorectal carcinoma cells, ATCC HTB-37; B16F10, mouse melanoma cells, ATCC CRL-6475) were plated at a density of 5,000 cells/well (DU145, HeLa-MaTu-ADR), 3,000 cells/well (NCI-H460, HeLa), 2,500 cells/well (A2780), 1,500 cells/well (Caco-2), or 1,000 cells/well (B16F10) in a 96-well multititer plate in 200 μL of their respective growth medium supplemented 10% fetal calf serum. After 24 hours, the cells of one plate (zero-point plate) were stained with crystal violet (see below), while the medium of the other plates was replaced by fresh culture medium (200 μl), to which the test substances were added in various concentrations (0 μM, as well as in the range of 0.001-10 μM; the final concentration of the solvent dimethyl sulfoxide was 0.5%). The cells were incubated for 4 days in the presence of test substances. Cell proliferation was determined by staining the cells with crystal violet: the cells were fixed by adding 20 μl/measuring point of an 11% glutaric aldehyde solution for 15 minutes at room temperature. After three washing cycles of the fixed cells with water, the plates were dried at room temperature. The cells were stained by adding 100 μl/measuring point of a 0.1% crystal violet solution (pH 3.0). After three washing cycles of the stained cells with water, the plates were dried at room temperature. The dye was dissolved by adding 100 μl/measuring point of a 10% acetic acid solution. The extinction was determined by photometry at a wavelength of 595 nm. The change of cell number, in percent, was calculated by normalization of the measured values to the extinction values of the zero-point plate (=0%) and the extinction of the untreated (0 μm) cells (=100%). The IC50 values (inhibitory concentration at 50% of maximal effect) were determined by means of a 4 parameter fit.

Another experiment deals with HeLa-MaTu-ADR cells. The experiment is described as follows: Proliferation assay HeLa-MaTu-ADR (Method 3). Conditions: 4 days, crystal violet, read-out: Inhibition of HeLa-MaTu-ADR cell proliferation IC50. The experiment is classed as cell-based, human. The protocol: as §1
For another experiment, the system named is B16F10 cells. The experiment is described as follows: Proliferation assay B16F10 (Method 3). In kind it is cell-based, mouse. Conditions: 4 days, crystal violet, read-out: Inhibition of Bc6F10 cell proliferation IC50. The protocol:
as §1

The structures appear in SMILES notation. Read-outs that look alike come from different tables or passages of the source.

As for `CS(=O)(Cc1cccc(Nc2ncc(F)c(-c3ccc(F)c4ccoc34)n2)c1)=NC#N` (single isomer, unassigned) [Example 2, [(3-{[5-Fluoro-4-(4-fluoro-1-benzofuran-7-yl)pyrimidin-2-yl]amino}benzyl)(methyl)oxido-λ^6-sulfanylidene]cyanamide], the IC50 was determined as 29 nM in the experiment with MOLM-13 cells; 19 nM at CDK2/CycE; 54 nM in the experiment with DU145 cells; 87 nM with HeLa-MaTu-ADR cells; 75 nM in the experiment with B16F10 cells.

Take `CS(=O)(Cc1cc(F)cc(Nc2ncc(F)c(-c3ccc(F)c4ccoc34)n2)c1)=NC#N` (racemic) [Example 7, (rac)-[(3-Fluoro-5-{[5-fluoro-4-(4-fluoro-1-benzofuran-7-yl)pyrimidin-2-yl]amino}benzyl)(methyl)-oxido-λ^6-sulfanylidene]cyanamide]: the IC50 was found to be 17 nM in the experiment with MOLM-13 cells (Homo sapiens, MOLM-13, 72 h); 56 nM against CDK2/CycE; 51 nM with DU145 cells (Homo sapiens, DU-145, 96 h); 60 nM in the experiment with HeLa-MaTu-ADR cells (Homo sapiens, 96 h); 64 nM in the experiment with B16F10 cells (Mus musculus, B16-F10, 96 h).

In the case of `CS(=O)(Cc1cccc(Nc2ncc(F)c(-c3ccc(F)c4ccoc34)n2)c1)=NC#N` (racemic) [Example 1, (rac)-[(3-{[5-Fluoro-4-(4-fluoro-1-benzofuran-7-yl)pyrimidin-2-yl]amino}benzyl)(methyl)oxido-λ^6-sulfanylidene]cyanamide], the IC50 with MOLM-13 cells (Homo sapiens, MOLM-13, 72 h) is 83 nM; at CDK2/CycE, 75 nM; in the experiment on DU145 cells (Homo sapiens, DU-145, 96 h), 112 nM; in the experiment on HeLa-MaTu-ADR cells (Homo sapiens, 96 h), 134 nM; with B16F10 cells (Mus musculus, B16-F10, 96 h), 170 nM.

As to `CS(=O)(Cc1cccc(Nc2ncc(F)c(-c3ccc(F)c4ccoc34)n2)c1)=NC#N` (single isomer, unassigned) [Example 3, [(3-{[5-Fluoro-4-(4-fluoro-1-benzofuran-7-yl)pyrimidin-2-yl]amino}benzyl)(methyl)oxido-λ^6-sulfanylidene]cyanamide], the IC50 in the experiment on MOLM-13 cells (Homo sapiens, MOLM-13, 72 h) worked out at 47 nM; at CDK2/CycE it was 45 nM; with DU145 cells (Homo sapiens, DU-145, 96 h) it was 105 nM; with HeLa-MaTu-ADR cells (Homo sapiens, 96 h), 118 nM; with B16F10 cells (Mus musculus, B16-F10, 96 h), 136 nM.

As to `CS(=O)(Cc1cc(Nc2ncc(F)c(-c3ccc(F)c4ccoc34)n2)cc(S(F)(F)(F)(F)F)c1)=NC#N` (racemic) [Example 17, (rac)-{[3-{[5-fluoro-4-(4-fluoro-1-benzofuran-7-yl)pyrimidin-2-yl]amino}-5-(pentafluoro-λ^6-sulfanyl)benzyl](methyl)oxido-λ^6-sulfanylidene}cyanamide], the IC50 stood at 57 nM in the experiment with MOLM-13 cells (Homo sapiens, MOLM-13, 72 h); 257 nM on CDK2/CycE; 94 nM with DU145 cells (Homo sapiens, DU-145, 96 h); 98 nM with HeLa-MaTu-ADR cells (Homo sapiens, 96 h); 118 nM with B16F10 cells (Mus musculus, B16-F10, 96 h).

For the molecule `Cc1cc(CS(C)(=O)=NC#N)cc(Nc2ncc(F)c(-c3ccc(F)c4ccoc34)n2)c1` (single isomer, unassigned) [Example 14, [(3-{[5-Fluoro-4-(4-fluoro-1-benzofuran-7-yl)pyrimidin-2-yl]amino}-5-methylbenzyl)-(methyl)oxido-λ^6-sulfanylidene]cyanamide], the IC50 in the experiment on MOLM-13 cells (Homo sapiens, MOLM-13, 72 h) stood at 75 nM; on CDK2/CycE, 65 nM; in the experiment on DU145 cells (Homo sapiens, DU-145, 96 h), 66 nM; with HeLa-MaTu-ADR cells (Homo sapiens, 96 h), 57 nM; in the experiment on B16F10 cells (Mus musculus, B16-F10, 96 h) it was 69 nM.

As to `Cc1cc(CS(C)(=N)=O)cc(Nc2ncc(F)c(-c3ccc(F)c4ccoc34)n2)c1` (racemic) [Example 16, (rac)-5-Fluoro-4-(4-fluoro-1-benzofuran-7-yl)-N-{3-methyl-5-[(S-methylsulfonimidoyl)-methyl]phenyl}pyrimidin-2-amine], the IC50 in the experiment with MOLM-13 cells (Homo sapiens, MOLM-13, 72 h) is 33 nM; on CDK2/CycE it was 80 nM; in the experiment on DU145 cells (Homo sapiens, DU-145, 96 h), 106 nM; with HeLa-MaTu-ADR cells (Homo sapiens, 96 h), 41 nM; in the experiment with B16F10 cells (Mus musculus, B16-F10, 96 h), 82 nM.

On to `CS(=N)(=O)Cc1cccc(Nc2ncc(F)c(-c3ccc(F)c4ccoc34)n2)c1` (single isomer, unassigned) [Example 6, 5-Fluoro-4-(4-fluoro-1-benzofuran-7-yl)-N-{3-[(S-methylsulfonimidoyl)-methyl]-phenyl}-pyrimidin-2-amine], for which the IC50 came to 117 nM with MOLM-13 cells; 57 nM against CDK2/CycE; 110 nM in the experiment with DU145 cells; 96 nM in the experiment on HeLa-MaTu-ADR cells; 185 nM with B16F10 cells.
